From patent US9255295B2, “Method for evaluating the sensitizing potential of a test compound” (IMMUNOSEARCH, priority 2010, dated 2016)

Experiments:
[1] = system: EPISKIN model
From the text: (§1) “Sensitizing power” means the ability of a given compound to induce a sensitization reaction according to the concentration of said compound. Sensitizing power is dependent on the quantity of substance necessary to induce sensitization. Thus, the lower the sensitizing quantity necessary to induce a sensitizing response, the stronger the sensitizer is, and vice versa, the higher the sensitizing quantity necessary to induce a sensitizing response, the weaker the sensitizer is.
(§2) Thus, steps 1) and 2) will be done for each of the dilutions.

[2] = system: ARE gene family (AKR1B10, AKR1C1, AKR1C2, CYP1B1, FTH1P, FTL, G6PD, GCLM, NQO2, SLC7A11, TXNRD1, UGT1A1, UGT1A9, YWHAZ, CD36, CYP1A1, GCLC, HMOX1, NQO1, PSME2 …)
[3] = system: EPISKIN model; assay: Sensitizing power: sensitizing potential retested at successive dilutions in the EPISKIN model
From the text: as §1, §2

[4] = system: genes specific for sensitization (BRAK, CTSS, DAPK2, FABP4, HSP27, IL18, HSP90, IL1R2, TPSAB1, CXCR1, DEFB1, DHFR, EHF, IVL, KRT4, MELANA, NGAL, PDZK1IP1, PI3 …); assay: Expression of the other (non-ARE) sensitization-specific genes in EPISKIN reconstructed skin (quantitative RT-PCR); type: cell-based, human

`CC(O)C(=O)O` (stereo not drawn) [Ac Lactique] was tested, and the “sensitizing potential (conclusion)” value [1] was “Non-sensitizing”, the “AHR NUMBER OF GENES grade” value [2] was 0 (key: If the expression is greater than 1.3 compared to the control, a grade of 11s given; if this expression is lower, the grade is 0) and the AHR expression [2] was 0.8. For the same compound, the “AKR1B10 NUMBER OF GENES grade” value [2] was 0 (key: If the expression is greater than 1.3 compared to the control, a grade of 11s given; if this expression is lower, the grade is 0), the “AKR1C1 NUMBER OF GENES grade” value [2] was 0 (key: If the expression is greater than 1.3 compared to the control, a grade of 11s given; if this expression is lower, the grade is 0) and the “AKR1C2 NUMBER OF GENES grade” value [2] was 0 (key: If the expression is greater than 1.3 compared to the control, a grade of 11s given; if this expression is lower, the grade is 0). The “ARE >1.3 (number of genes)” value [2] was 0, the “CYP1B1 NUMBER OF GENES grade” value [2] was 0 (key: If the expression is greater than 1.3 compared to the control, a grade of 11s given; if this expression is lower, the grade is 0) and the “FTH1P NUMBER OF GENES grade” value [2] was 0 (key: If the expression is greater than 1.3 compared to the control, a grade of 11s given; if this expression is lower, the grade is 0). For the same compound, the “FTL NUMBER OF GENES grade” value [2] was 0 (key: If the expression is greater than 1.3 compared to the control, a grade of 11s given; if this expression is lower, the grade is 0), the “GCLC NUMBER OF GENES grade” value [2] was 0 (key: If the expression is greater than 1.3 compared to the control, a grade of 11s given; if this expression is lower, the grade is 0) and the “GCLM NUMBER OF GENES grade” value [2] was 0 (key: If the expression is greater than 1.3 compared to the control, a grade of 11s given; if this expression is lower, the grade is 0). For the same compound, the GCLM expression [2] was 1.1, the “HMOX1 NUMBER OF GENES grade” value [2] was 0 (key: If the expression is greater than 1.3 compared to the control, a grade of 11s given; if this expression is lower, the grade is 0) and the “NQO1 NUMBER OF GENES grade” value [2] was 0 (key: If the expression is greater than 1.3 compared to the control, a grade of 11s given; if this expression is lower, the grade is 0). The “NQO2 NUMBER OF GENES grade” value [2] was 0 (key: If the expression is greater than 1.3 compared to the control, a grade of 11s given; if this expression is lower, the grade is 0), the NQO2 expression [2] was 1.2 and the “SLC7A11 NUMBER OF GENES grade” value [2] was 0 (key: If the expression is greater than 1.3 compared to the control, a grade of 11s given; if this expression is lower, the grade is 0). For the same compound, the SLC7A11 expression [2] was 1.0, the “TOTAL ARE (number of genes)” value [2] was 0 and the “TXNRD1 NUMBER OF GENES grade” value [2] was 0 (key: If the expression is greater than 1.3 compared to the control, a grade of 11s given; if this expression is lower, the grade is 0). The “UGT1A1 NUMBER OF GENES grade” value [2] was 0 (key: If the expression is greater than 1.3 compared to the control, a grade of 11s given; if this expression is lower, the grade is 0), the UGT1A1 expression [2] was 1.3 and the “UGT1A9 NUMBER OF GENES grade” value [2] was 0 (key: If the expression is greater than 1.3 compared to the control, a grade of 11s given; if this expression is lower, the grade is 0). For the same compound, the UGT1A9 expression [2] was 0.8, the “NUMBER OF GENES overexpressed, sum column 8” value [3] was 0 and the “SENS >1.3 (number of genes)” value [4] was 1.
